Tests used:
Conditions in all cases: 72 h
Caco-2 [1] = experiment: cell viability relative to DMSO; higher = less toxic
Calu-3 [2] = experiment: as above
HepG2 [3] = experiment: as above
U2OS [4] = experiment: as above
Vero E6 [5] = experiment: as above
Caco-2 [6] = experiment: relative viability EC50 (midpoint between 100% and the lowest measured viability); higher = less toxic
Calu-3 [7] = experiment: as above
HepG2 [8] = experiment: as above
U2OS [9] = experiment: as above
Vero E6 [10] = experiment: as above
Caco-2 [11] = experiment: drug sensitivity score (DSS) for viability; higher = more toxic; extreme values may be limits of the assay
Calu-3 [12] = experiment: as above
HepG2 [13] = experiment: as above
U2OS [14] = experiment: as above
Vero E6 [15] = experiment: as above

Structure (SMILES)	cell viability (Caco-2 [1]; 1 nM) [%]	cell viability (Caco-2 [1]; 10 nM) [%]	cell viability (Caco-2 [1]; 100 nM) [%]	cell viability (Caco-2 [1]; 1000 nM) [%]	cell viability (Caco-2 [1]; 10000 nM) [%]	cell viability (Calu-3 [2]; 1 nM) [%]	cell viability (Calu-3 [2]; 10 nM) [%]	cell viability (Calu-3 [2]; 100 nM) [%]	cell viability (Calu-3 [2]; 1000 nM) [%]	cell viability (Calu-3 [2]; 10000 nM) [%]	cell viability (HepG2 [3]; 1 nM) [%]	cell viability (HepG2 [3]; 10 nM) [%]	cell viability (HepG2 [3]; 100 nM) [%]	cell viability (HepG2 [3]; 1000 nM) [%]	cell viability (HepG2 [3]; 10000 nM) [%]	cell viability (U2OS [4]; 1 nM) [%]	cell viability (U2OS [4]; 10 nM) [%]	cell viability (U2OS [4]; 100 nM) [%]	cell viability (U2OS [4]; 1000 nM) [%]	cell viability (U2OS [4]; 10000 nM) [%]	cell viability (Vero E6 [5]; 1 nM) [%]	cell viability (Vero E6 [5]; 10 nM) [%]	cell viability (Vero E6 [5]; 100 nM) [%]	cell viability (Vero E6 [5]; 1000 nM) [%]	cell viability (Vero E6 [5]; 10000 nM) [%]	relative viability EC50 (Caco-2 [6]) [µM]	relative viability EC50 (Calu-3 [7]) [µM]	relative viability EC50 (HepG2 [8]) [µM]	relative viability EC50 (U2OS [9]) [µM]	relative viability EC50 (Vero E6 [10]) [µM]	drug sensitivity score (Caco-2 [11])	drug sensitivity score (Calu-3 [12])	drug sensitivity score (HepG2 [13])	drug sensitivity score (U2OS [14])	drug sensitivity score (Vero E6 [15])
CC(C)C[C@@H](N)C1(c2ccc(Cl)cc2)CCC1	101	103	108	96	90.3	96	104	109	89.9	102	104	99.9	110	103	104	98.9	98.3	94.2	99	94.1	106	101	100	98.8	105	> 10	> 10	> 10	> 10	> 10	0	0	0	0	0
CC(C)OC(=O)C1=CN(C(=O)c2ccc(F)c(F)c2)CC(C)(C)c2c1[nH]c1ccccc21	84.5	99.7	86.1	95.2	89.3	104	91.3	103	96.5	97.8	95.3	102	97.3	92.1	112	98.3	99.6	95.9	100	96.3	101	97.6	95.4	98.7	98.9	> 10	> 10	> 10	> 10	> 10	0	0	0	0	0
CCC[C@H](N[C@H]1CCc2cc(F)cc(F)c2C1)C(=O)Nc1cn(C(C)(C)CNCC(C)(C)C)cn1	102	91.8	102	98.2	86.1	95	105	108	103	84.4	105	104	104	93.9	80.1	102	94.7	99.7	92.4	87.9	99.7	104	107	95.5	89.1	> 10	> 10	> 10	> 10	> 10	0.3	0.2	1.3	0.2	0.1
CCCc1c(OCCCOc2ccc(OCC(=O)O)cc2)ccc(C(C)=O)c1O	97.2	90.6	88.8	95.7	103	101	94.8	93.6	101	107	102	106	107	104	92.8	94.3	98.6	93.4	96.5	102	107	99.5	106	102	94.2	> 10	> 10	> 10	> 10	> 10	0	0	0	0	0
CCOC(=O)C(=O)Nc1cccc(OC)c1C(N)=O	83.3	96.6	103	104	102	83.7	95.3	91.2	97.5	88.8	102	96.7	93.2	102	104	98.9	98.9	96	101	97.6	103	94.9	108	105	106	> 10	> 10	> 10	> 10	> 10	0	0	0	0	0
CC[C@H](NC(=O)c1c(C)c(-c2ccccc2)nc2ccccc12)c1ccccc1	106	98.4	101	103	91.2	95.8	95.2	100	96.7	87.7	99	108	95.4	102	93.4	104	101	101	98.7	102	103	109	102	103	96.7	> 10	> 10	> 10	> 10	> 10	0	0.2	0	0	0
CN(C)CCCCSC(=N)N	104	111	99.6	105	97.9	90.6	89.5	89	91.8	90.1	104	103	90.7	93	95.1	94	92.8	100	94.7	97.8	104	108	101	105	99.3	> 10	> 10	> 10	> 10	> 10	0	0.8	0	0	0
CN(C)[C@@H]1CCc2[nH]c3ccc(NC(=O)c4ccc(F)cc4)cc3c2C1	96	103	93.5	99.3	86.6	105	93.2	105	110	84.2	101	99.3	95.8	89.3	94.6	97.1	104	91.9	101	96.1	106	98.9	100	96.1	97.2	> 10	> 10	> 10	> 10	> 10	0.2	0.1	0.1	0	0
COc1cccc(NC(=O)/C=C/c2ccc(Cl)cc2)c1	98.2	100	98.5	88.3	81	104	99.4	93.3	108	84.2	102	103	99.8	98.3	105	93	100	96.3	97.9	92.8	102	96.4	97.2	95	107	> 10	> 10	> 10	> 10	> 10	1.4	0.1	0	0	0
CSc1cc2c(cc1C(F)(F)F)N(C(=O)Nc1cccnc1)CC2	103	101	95.5	97.5	97.9	106	83.3	93.2	91.2	107	109	95.6	85	99	94.7	100	99.6	108	98.9	101	102	104	96.5	102	102	> 10	> 10	> 10	> 10	> 10	0	0	0	0	0
C[C@H](Cc1ccc(OCC(=O)O)cc1)NC[C@H](O)c1cccc(Cl)c1	98.6	89.6	105	94.8	103	97.9	101	103	100	90.7	104	111	98.4	99.8	97.7	98	93.3	96	102	99.8	97.6	95.9	91.7	92.3	105	> 10	> 10	> 10	> 10	> 10	0	0	0	0	0
C[C@H]1CO[C@@H]2Cn3cc(C(=O)NCc4ccc(F)cc4F)c(=O)c(O)c3C(=O)N12	107	90.1	98	98.5	81.6	109	94	104	95.2	92.2	104	112	97.1	112	56.9	95.6	92.4	99.4	92.2	88.5	88.9	99.7	94.3	97.5	89.6	> 10	> 10		> 10	> 10	0.6	0	1.6	0	0
Cc1ccc(-c2ncc[nH]2)cc1NC(=O)c1ccc(OCc2ccccn2)cc1	101	101	105	96.7	85.2	91	97.8	96.6	89.1	101	103	103	97.7	96	94.7	96.5	98	100	97.1	99.2	100	104	99.2	99.2	90	> 10	> 10	> 10	> 10	> 10	0.5	0	0	0	0
Cc1cn2c(N)c(Cl)cc(C(=O)NCC3CCN(CC(C)C)CC3)c2n1	103	83.1	103	99.7	107	102	96.5	99.9	93.4	99.9	107	99.6	102	88.1	97.1	101	95.1	102	97.6	95.4	88	101	90.2	96.5	99.2	> 10	> 10	> 10	> 10	> 10	0	0	0.5	0	0
Cc1cnc(-c2cc(N3CCN(C(=O)CCS(C)(=O)=O)CC3)ncc2Cl)c(C)c1	103	90.2	102	99.1	106	104	105	92.8	110	109	99.9	93.2	98.6	101	113	92.1	101	98.1	105	101	94.5	93.4	95.4	95.3	102	> 10	> 10	> 10	> 10	> 10	0	0	0	0	0
